Values of other authors as cited in patent publication US20100172972A1, “ENTERIC COATED PHARMACEUTICAL COMPOSITIONS” (priority 2007, published 2010).
Structures can show the parent of a compound that is named as a salt.

Columns and labels:
[1] = not given; remark: listed apart in the source

Row | SMILES | solubility in water | drug in the dosage hydrolyzed to 1-naphthol ([1]; pH 1.0) [%] | drug in the dosage degrades to 1-naphthol ([1]; pH 2.0, in one hour) [%] | time for 10% degradation ([1]; pH 4.0)
1 | CNCC[C@H](Oc1cccc2ccccc12)c1cccs1 [Duloxetine] | slightly soluble in water | – | – | –
2 | CNCC[C@H](Oc1cccc2ccccc12)c1cccs1 [Duloxetine hydrochloride] | – | 50 | 10 | up to 63 hours
